In the experiment the test system is Plasmodium falciparum. Briefly: GSK_TCMDC: Inhibition of Plasmodium falciparum 3D7 in whole erythrocytes, using parasite LDH activity as an index of growth. It counts as functional, organism-based. To be noted: Plasmodium falciparum, 3D7.

`CC(=O)N(Cc1cccc(-c2cccc(CNCCc3ccccc3)c2)c1)C1CCN(Cc2ccccc2)CC1` showed an XC50 of 670 nM.

In turn, `Fc1ccc2[nH]c(-c3ccc(-c4cccc(CN5CCC(CCN6CCCCC6)CC5)c4)cc3)nc2c1` yielded an XC50 of 136 nM.

Turning to `COc1ccccc1Nc1nc(NC2CCN(C)CC2)cc(-c2cccc(C(F)(F)F)c2)n1`, the XC50 amounted to 919 nM.

As to `O=C(/C=C/c1ccc(Cl)c(Cl)c1)NCCCCCN1CCCC(C(=O)Nc2cccc(Cl)c2)C1` (stereo unspecified), the XC50 was 895 nM.

For the compound `c1cc(-c2ccc(CN3CCN(c4ccncc4)CC3)cc2)cc(-c2nc3ccccc3[nH]2)c1`, the XC50 came out at 140 nM.

`Cc1cccc(Oc2cccc3[nH]nc(N)c23)c1` displayed an XC50 of 1040 nM.

Regarding `Fc1ccccc1COc1ccc(Nc2ncnc3ccc(-c4nnc(C(F)(F)F)o4)cc23)cc1Cl`, the XC50 turned out to be 731 nM.

On to `O=C(CSc1nn(-c2ccccc2)c(=S)s1)c1c[nH]c2ccccc12`, for which the XC50 was 1090 nM.

`CC(C)(C)Oc1ccc(NC(=O)c2ccccc2O)cc1` returned an XC50 of 1010 nM.

In turn, `CC(C)C[C@H](Nc1ccnc(NCC2CCCCC2)n1)C(=O)NCCOc1ccccc1` gave an XC50 of 1020 nM.

On to `COc1ccc(Nc2nc(N/N=C/c3ccc(-c4ccc([N+](=O)[O-])cc4)o3)nc(Nc3ccccc3)n2)cc1`, for which the XC50 was found to be 761 nM.

Compound `COc1ccc2nccc([C@@H](O)CN3CCC(NC(=O)C(c4cc5ccccc5o4)N4CCN(C(c5ccccc5)c5ccccc5)CC4)CC3)c2c1` (stereo partly specified) registered an XC50 of 149 nM.

As for `Cc1cccc2nc(-c3cccc(-c4cccc(CNCCNC(=O)c5ccnn5C)c4)c3)[nH]c12`, the XC50 turned out to be 192 nM.

Compound `COc1ccc(-c2ccc(NC(=O)c3ccc(F)cc3)cc2)cc1CNC(C)C` registered an XC50 of 758 nM.

Turning to `O=C(Nc1ccc(CN2CCOCC2)cc1)c1ccc(-c2ccc(Cl)cc2)o1`, the XC50 worked out at 862 nM.

On to `COc1cc2ncnc(Nc3ccc4nc(-c5ccccc5)[nH]c4c3)c2cc1OC`, for which the XC50 turned out to be 443 nM.

`N=C(Nc1ccccc1)Nc1cccc(Cc2ccc([N+](=O)[O-])cc2)n1` had an XC50 of 945 nM.

`CCOC(=O)CCc1cc(F)c(F)c(OC[C@H](O)CNC(C)(C)C(O)c2ccc3ccccc3c2)c1` (stereo partly specified): the XC50 amounted to 859 nM.

On to `CN1CCN(c2ccc(CNc3ccc4ncc(-c5cccc(OC(F)(F)F)c5)n4n3)cc2)CC1`, for which the XC50 came to 862 nM.

In the case of `O=C(/C=C/c1ccc(Cl)c(Cl)c1)NCCCCCN1CCC(C(=O)Nc2ccc(Cl)c(Cl)c2)CC1`, the XC50 came out at 637 nM.

The compound `CC(Cc1ccc(OCCN2CCN(c3cccc(C(F)(F)F)c3)CC2)cc1)NCC(O)c1cccc(C(F)(F)F)c1` (stereo unspecified) registered an XC50 of 181 nM.

Regarding `COc1ccc2nccc([C@@H](O)CN3CCC(NCc4cc5cccnc5[nH]4)CC3)c2n1`, the XC50 stood at 956 nM.

Regarding `Cc1cc(OCC2CCN(c3ncc(C(=O)NC4CC4)cc3Cl)CC2)ccc1F`, the XC50 is 789 nM.

In the case of `CC(C)(CNCc1ccc(Cl)cc1)c1nc(-c2ccc(Cl)c(O)c2)c(-c2ccncc2)[nH]1`, the XC50 amounted to 476 nM.

For `COc1ccc(-c2csc3ncnc(Cl)c23)cc1`, the XC50 amounted to 781 nM.

In turn, `COc1cccc(-c2nn(C)c3sc(C(=O)NCCN(C)Cc4ccccc4)cc23)c1` returned an XC50 of 814 nM.

The compound `COc1ccc(NC(=O)CCNc2cc(C)nc(NCCc3ccccc3)n2)cc1` returned an XC50 of 1160 nM.

Take `CCOC(=O)c1[nH]c2ccc(F)cc2c1NC(=O)CN1CCN(c2cccc(C(F)(F)F)c2)CC1`: the XC50 stood at 458 nM.

`CCN1C(=O)C(=NN=C(S)N2CCCC2)c2ccccc21` returned an XC50 of 1000 nM.

The compound `Cc1nc(C)c(CC(=O)Nc2ccc(-c3cccc(-c4nc5cccc(C)c5[nH]4)c3)cc2)s1` gave an XC50 of 596 nM.

As for `Cc1nc2nc(N)nc(N)c2c(C)c1Cc1ccccc1`, the XC50 is 248 nM.

As to `O=C(Nc1cccc(F)c1)N1CCC(NS(=O)(=O)c2ccc(Br)cc2)CC1`, the XC50 is 979 nM.

For the compound `CCCc1ccc(S(=O)(=O)NC2CCN(C(=O)Nc3ccc(I)cc3)CC2)cc1`, the XC50 stood at 872 nM.

Take `CCc1ccc(CN2CCC(C(=O)Nc3ccc(-c4nc5ccccc5[nH]4)cc3)CC2)o1`: the XC50 is 610 nM.

In turn, `CCN(c1cc(C)nc(Nc2ccc(Cl)cc2)n1)[C@H]1CCN(Cc2ccccc2)C1` displayed an XC50 of 855 nM.

Compound `CC(=O)N1N=C(c2ccc(F)cc2)Sc2c1nc(C1CCCCC1)n2C(C)=O` showed an XC50 of 891 nM.

In the case of `O=C(Nc1cccc(CN2CCCN(Cc3cccc(O)c3)CC2)c1)c1cc2ccccc2s1`, the XC50 stood at 365 nM.

Compound `Nc1nccc2ccc(Oc3ccncc3)cc12` yielded an XC50 of 481 nM.

Turning to `CCn1c(-c2nonc2N)nc2c(-c3cccc(NC(=O)Nc4cccc(Cl)c4)c3)ncc(OCCCN)c21`, the XC50 worked out at 941 nM.

Take `CCCCCCCN(CCCCCCC)CCNc1cc(C)nc2ccccc12`: the XC50 turned out to be 339 nM.

Take `CCOC(=O)c1cnc2cc(N3CCCC3)c(Cl)cc2c1OCC`: the XC50 worked out at 108 nM.

`COc1cccc(COCC(O)CN(CCc2ccccn2)C(=O)c2ccccc2F)c1` (stereo unspecified) yielded an XC50 of 825 nM.

As to `CC(C)(C)c1cc(C(=O)N2CCN(c3ccc(C(F)(F)F)cn3)CC2)n(Cc2ccc(F)cc2)n1`, the XC50 was determined as 978 nM.

`Cc1cc(N[C@@H](CC(C)C)C(=O)NCc2cccc(F)c2)nc(NCCc2ccc(F)cc2)n1`: the XC50 was found to be 1470 nM.

In turn, `c1ccc(CN2CCC(NCc3ccccc3-c3ccc(CNCc4ccc5c(c4)OCO5)cc3)CC2)cc1` showed an XC50 of 326 nM.

The compound `CS(=O)(=O)CCNCc1cc(-c2cc3ncnc(Nc4ccc(OCc5cccc(F)c5)c(Cl)c4)c3s2)cs1` displayed an XC50 of 326 nM.

`N#Cc1cc([N+](=O)[O-])ccc1-n1nc(C(N)=O)n(Cc2cccc(F)c2)c1=S` came in with an XC50 of 721 nM.

Compound `CC(C)(Cc1ccc(Cl)cc1)NCCCCCCNCCc1ccc(O)c(O)c1` gave an XC50 of 1200 nM.

In turn, `O=C(NCc1cccc(C(F)(F)F)c1)C(c1cc2ccccc2o1)N1CCN(C(c2ccccc2)c2ccccc2)CC1` (stereo unspecified) registered an XC50 of 498 nM.

On to `CC(C)(C)c1ccc(CN2CCCCC(NC(=O)c3cc(-c4cccc(F)c4)cs3)C2)cc1` (stereo unspecified), for which the XC50 worked out at 783 nM.

In turn, `Cc1[nH]c2ccccc2c1C1=CCN(CCN2CCCc3c(Br)cccc3C2=O)CC1` returned an XC50 of 659 nM.

The compound `O=C(/C=C/c1cc(F)c(F)cc1F)N1CCC(CN2CCC(c3c[nH]c4ccccc34)CC2)CC1` showed an XC50 of 995 nM.

With `COc1ccc(CCNCCCCCCNCCc2ccc(Cl)c3ccccc23)cc1OC`, the XC50 was determined as 580 nM.

Compound `CC(=O)c1ccc2cc(C(=O)NC3CCC(CCN4CCc5ccc(-c6noc(C)n6)cc5CC4)CC3)[nH]c2c1` (stereo unspecified) showed an XC50 of 946 nM.

Consider `Cc1cc(OCC(=O)Nc2ccc(-c3nc4ccccc4[nH]3)cc2)cc(C)c1Cl`, for which the XC50 was found to be 742 nM.

As for `COc1ccc2nccc([C@@H](O)CN3CCC(NC(=O)c4ccc(Oc5ccccc5)cc4)CC3)c2c1`, the XC50 is 1380 nM.

Turning to `O=C(NC1CCN(Cc2ccc(F)cc2)CC1)c1ccc(-c2cccc(C(F)(F)F)c2)s1`, the XC50 was found to be 1360 nM.

In turn, `COc1ccc2c(c1)CC(CNC[C@H](O)c1cccc(Cl)c1)CC2` (stereo partly specified) returned an XC50 of 988 nM.

Turning to `O=C(NCCCCCN1CCC(c2c[nH]c3ccccc23)CC1)Nc1ccc(Br)cc1`, the XC50 is 925 nM.

`CCc1ccccc1-c1csc(C(=O)NCC2CCN(Cc3ccc(C(C)(C)C)cc3)C2)c1` (stereo unspecified) had an XC50 of 1150 nM.

For the compound `CCCN(Cc1nnc(-c2cccs2)o1)C(=O)CSc1nnnn1-c1ccc(C)c(C)c1`, the XC50 turned out to be 582 nM.

`CCCCOc1ccccc1C(=O)NCc1csc(-c2ccccc2)n1` gave an XC50 of 556 nM.

For `Cc1c(Br)cc2nc(-c3ccc(C(=O)NC4CCN(Cc5ccccc5)CC4)cc3)[nH]c2c1C`, the XC50 amounted to 332 nM.

Regarding `CN(CCc1ccccc1)c1ncc(-c2cccc(CNCCC3CCCN3C)c2)cn1` (stereo unspecified), the XC50 stood at 870 nM.

Compound `Cc1cccc2nc(-c3cccc(-c4ccc(CNCCc5ccncc5)cc4)c3)[nH]c12` displayed an XC50 of 119 nM.

As for `CN(c1ccc2c(c1)nc(NCc1ccc(F)cc1)n2C)c1ccnc(Nc2ccc(CS(C)(=O)=O)cc2)n1`, the XC50 came out at 828 nM.

`CC(C)COc1ccc(Cl)cc1Nc1nc(-c2nc3ccccc3[nH]2)cs1` displayed an XC50 of 877 nM.

For `COc1ccc(NC(=O)CCNc2cc(C)nc(NCc3cccc(C)c3)n2)cc1`, the XC50 is 1090 nM.

In turn, `CCC(C)NC(=O)Nc1ccc(-c2cccc(-c3nc4cccc(C)c4[nH]3)c2)cc1` (stereo unspecified) gave an XC50 of 189 nM.

In turn, `NCC1CCCN1Cc1ccc(-c2ccc(-c3nc4cc(C(F)(F)F)ccc4[nH]3)cc2)cc1` (stereo unspecified) gave an XC50 of 959 nM.

Compound `CN1CCN(c2ccc(Nc3ncc([N+](=O)[O-])c(Nc4ccccc4O)n3)cc2)CC1` gave an XC50 of 723 nM.

With `O=C(Nc1ccsc1C(=O)NC1CCCCC1)c1ccc(F)cc1`, the XC50 stood at 1210 nM.

For `CC(=O)c1ccc(NC(=O)C2c3ccccc3C(=O)N(CC(C)C)C2c2cccs2)cc1` (stereo unspecified), the XC50 turned out to be 1320 nM.

`FC(F)(F)c1cccc(-c2cc(NCCCn3ccnc3)nc(-c3ccncc3)n2)c1` registered an XC50 of 105 nM.

For the compound `Cc1c(CCNC(=O)CCCN2CC(C)CC(C)C2)c2ccccc2n1C` (stereo unspecified), the XC50 turned out to be 1270 nM.

In the case of `CCCCCC(=O)N1CCOC(CCN2CCc3c(c4ccccc4n3C)C2)(c2ccc(Cl)c(Cl)c2)C1` (stereo unspecified), the XC50 worked out at 982 nM.

For `Cn1ccnc1CNC(=O)c1ccc(-c2ccc(-c3nc4cc(C(F)(F)F)ccc4[nH]3)s2)cc1`, the XC50 was found to be 698 nM.

As for `Cc1noc(C)c1-c1cccc(CNCc2ccc(-c3cccc(-c4nc5cc(F)ccc5[nH]4)c3)cc2)c1`, the XC50 amounted to 545 nM.

The compound `CN(C)CCCn1c(N)c(-c2nc3ccccc3[nH]2)c2nc(C#N)c(C#N)nc21` returned an XC50 of 591 nM.

`CCCCNCc1ccc(OCc2cccc(COc3ccc(CNCCCC)cc3)c2)cc1`: the XC50 is 318 nM.

Take `Cc1ccc(CN2CCN(c3cc4c(cc3Cl)CCN4C(=O)Cc3ccc(Cl)c(NC(=O)Nc4cccc(C#N)c4)c3)CC2)cc1`: the XC50 stood at 1130 nM.

Regarding `COc1cc(NC(=O)N2CCc3ccc(OCCC4CCCN4C)cc32)cc(C(F)(F)F)c1` (stereo unspecified), the XC50 was 714 nM.

With `COc1ccc(C=NN=c2cc(C)[nH]c3ccccc23)c2ccccc12`, the XC50 was 752 nM.

As to `CN1CCN(CCCN(Cc2ccc(-c3ccc(CNCc4ccc5c(c4)OCO5)cc3)cc2)C(=O)Nc2ccccc2)CC1`, the XC50 came to 707 nM.

In the case of `COc1ccc2nccc([C@@H](O)CN3CCC(NCc4ccc5c(c4)sc(=O)n5C)CC3)c2c1`, the XC50 came to 258 nM.

Take `CC(C)c1ccc(NC(S)=NN=Cc2ccccn2)cc1`: the XC50 is 724 nM.

Values taken from ChEMBL document CHEMBL1157539, “Thousands of chemical starting points for antimalarial lead identification” (Nature, 2010).
